According to paper PMC8933873 (European Journal of Medicinal Chemistry, 2022):
Where two headings read alike, the source gives them in different places.

Assays:
[1] = GI permeability, 50 μM, 25 °C, 3 h
[2] = system: SARS-CoV-2 virus strain hCoV-19/Taiwan/4/2020; assay type: cell-based
[3] = system: SARS-CoV-2; conditions: read-out: Anti-SARS-CoV-2 IC50; literature value; cited from earlier work
[4] = system: TMEM16F; assay type: cell-based; conditions: 1 h treatment, Vero E6 cells, annexin XII
[5] = in vitro; conditions: PAMPA
[6] = system: SARS-CoV-2; assay: Quantification of SARS-CoV-2 viral load via antibody staining; assay type: cell-based
[7] = system: COVID-19; conditions: non-hospitalized adult patients with mild-to-moderate COVID-19, phase 3 study; cited from earlier work

Compound | PAMPA [1] | antiviral efficacy in CPE screening [2] | also measured
5-Chloro-N-(3-hydroxybenzyl)-2-hydroxybenzamide [Compound 13] | 15.9 10^−6 cm/s | inactive | –
5-Chloro-N-(4-hydroxybenzyl)-2-hydroxybenzamide [Compound 14] | 33.1 10^−6 cm/s | inactive | –
O=C(Nc1ccc([N+](=O)[O-])cc1Cl)c1cc(Cl)ccc1O [Compound 1, 5-Chloro-N-(2-chloro-4-nitrophenyl)-2-hydroxybenzamide] | 8.5 10^−6 cm/s | – | IC50 [3]: 340 nM; phosphatidylserine externalization triggered by ionomycin ([4]; 100 nM): significantly reduced the signal of phosphatidylserine on cell surface
O=C(Nc1ccccc1)c1cc(Cl)ccc1O [Compound 2, 5-Chlorosalicylanilide] | 16.0 10^−6 cm/s | antiviral efficacy that were superior to their cytotoxicity | –
O=C(Nc1ccc([N+](=O)[O-])cc1)c1cc(Cl)ccc1O [Compound 3, 5-Chloro-N-(4-nitrophenyl)-2-hydroxybenzamide] | – | antiviral efficacy that were superior to their cytotoxicity | Papp [5]: 12.4 ×10⁻⁶ cm/s
O=C(Nc1cccc([N+](=O)[O-])c1)c1cc(Cl)ccc1O [Compound 4, 5-Chloro-N-(3-nitrophenyl)-2-hydroxybenzamide] | 19.5 10^−6 cm/s | antiviral efficacy that were superior to their cytotoxicity | –
O=C(Nc1ccc([N+](=O)[O-])c(Cl)c1)c1cc(Cl)ccc1O [Compound 5, 5-Chloro-N-(3-chloro-4-nitrophenyl)-2-hydroxybenzamide] | – | – | anti-SARS-CoV-2 activity relative to niclosamide [6]: 7 fold
O=C(Nc1cccc(Cl)c1)c1cc(Cl)ccc1O [Compound 6, 5-Chloro-N-(3-chlorophenyl)-2-hydroxybenzamide] | 8.6 10^−6 cm/s | antiviral efficacy that were superior to their cytotoxicity | –
O=C(Nc1ccc(F)c(Cl)c1)c1cc(Cl)ccc1O [Compound 7, 5-Chloro-N-(3-chloro-4-fluorophenyl)-2-hydroxybenzamide] | 11.5 10^−6 cm/s | diminished | –
O=C(Nc1ccc(F)cc1)c1cc(Cl)ccc1O [Compound 8, 5-Chloro-N-(4-fluorophenyl)-2-hydroxybenzamide] | – | inactive | Papp [5]: 18.2 ×10⁻⁶ cm/s
O=C(Nc1cccc(F)c1)c1cc(Cl)ccc1O [Compound 9, 5-Chloro-N-(3-fluorophenyl)-2-hydroxybenzamide] | 3.7 10^−6 cm/s | inactive | –
O=C(Nc1ccc(C(F)(F)F)cc1)c1cc(Cl)ccc1O [Compound 10, 5-Chloro-N-(4-trifluoromethylphenyl)-2-hydroxybenzamide] | 6.9 10^−6 cm/s | antiviral efficacy that were superior to their cytotoxicity | –
O=C(Nc1cccc(C(F)(F)F)c1)c1cc(Cl)ccc1O [Compound 11, 5-Chloro-N-(3-trifluoromethylphenyl)-2-hydroxybenzamide] | 4.2 10^−6 cm/s | antiviral efficacy that were superior to their cytotoxicity | –
CC(C)(C)c1cccc(NC(=O)c2cc(Cl)ccc2O)c1 [Compound 12, 5-Chloro-N-(3-tert-butylphenyl)-2-hydroxybenzamide] | 18.7 10^−6 cm/s | antiviral efficacy that were superior to their cytotoxicity | –
O=C(Nc1ccc(N2CCCCC2)cc1)c1cc(Cl)ccc1O [Compound 15, 5-Chloro-N-(4-(piperidin-1-yl)phenyl)-2-hydroxybenzamide] | 43.3 10^−6 cm/s | inactive | –
Cc1ccc(CNC(=O)c2cc(Cl)ccc2O)cc1 [Compound 16, 5-Chloro-N-(4-methylbenzyl)-2-hydroxybenzamide] | 42.6 10^−6 cm/s | did not show viral inhibition | –
Cc1cccc(CNC(=O)c2cc(Cl)ccc2O)c1 [Compound 17, 5-Chloro-N-(3-methylbenzyl)-2-hydroxybenzamide] | 28.4 10^−6 cm/s | did not show viral inhibition | –
O=C(Nc1ccc([N+](=O)[O-])cc1Cl)c1ccccc1O [Compound 18, N-(2-chloro-4-nitrophenyl)-2-hydroxybenzamide] | 15.3 10^−6 cm/s | antiviral efficacy that were superior to their cytotoxicity | –
O=C(Nc1ccc([N+](=O)[O-])cc1Cl)c1ccccc1 [Compound 19, N-(2-chloro-4-nitrophenyl)benzamide] | 42.2 10^−6 cm/s | – | –
Cc1ccc(O)c(C(=O)Nc2ccc([N+](=O)[O-])cc2Cl)c1 [Compound 20, 5-Methyl-N-(2-chloro-4-nitrophenyl)-2-hydroxybenzamide] | 20.9 10^−6 cm/s | diminished | –
Cc1ccc(C(=O)Nc2ccc([N+](=O)[O-])cc2Cl)c(O)c1 [Compound 21, 4-Methyl-N-(2-chloro-4-nitrophenyl)-2-hydroxybenzamide] | 6.1 10^−6 cm/s | diminished | –
O=C(Nc1ccc([N+](=O)[O-])cc1Cl)c1cc(F)ccc1O [Compound 22, 5-Fluoro-N-(2-chloro-4-nitrophenyl)-2-hydroxybenzamide] | 30.7 10^−6 cm/s | diminished | –
O=C(Nc1ccc(O[C@@H]2O[C@H](CO)[C@@H](O)[C@H](O)[C@H]2O)cc1)c1cc(Cl)ccc1O [Compound 27, 5-Chloro-N-(4-phenyl-β-D-glucopyranoside)-2-hydroxybenzamide] | 1.9 10^−6 cm/s | inactive | –
CC(C)C(=O)OC[C@H]1O[C@@H](n2ccc(NO)nc2=O)[C@H](O)[C@@H]1O [Molnupiravir] | – | – | reduction of the risk of hospitalization or death [7]: 30%
Cc1c(O)cccc1C(=O)N[C@@H](CSc1ccccc1)[C@H](O)CN1C[C@H]2CCCC[C@H]2C[C@H]1C(=O)NC(C)(C)C [Nelfinavir] | – | – | phosphatidylserine externalization triggered by ionomycin ([4]; 500 nM): no inhibition
